This note sets out measurements from patent US9951065B2 (Gilead Sciences, Inc., priority 2015, dated 2018).

pEC50: −log10 of the molar value.

As a reminder, the pEC50 is −log10 of the EC50, conventionally taken in molar units. Low readings indicate a large EC50, high ones a small EC50.

T1 sequence (P14902 whole entry): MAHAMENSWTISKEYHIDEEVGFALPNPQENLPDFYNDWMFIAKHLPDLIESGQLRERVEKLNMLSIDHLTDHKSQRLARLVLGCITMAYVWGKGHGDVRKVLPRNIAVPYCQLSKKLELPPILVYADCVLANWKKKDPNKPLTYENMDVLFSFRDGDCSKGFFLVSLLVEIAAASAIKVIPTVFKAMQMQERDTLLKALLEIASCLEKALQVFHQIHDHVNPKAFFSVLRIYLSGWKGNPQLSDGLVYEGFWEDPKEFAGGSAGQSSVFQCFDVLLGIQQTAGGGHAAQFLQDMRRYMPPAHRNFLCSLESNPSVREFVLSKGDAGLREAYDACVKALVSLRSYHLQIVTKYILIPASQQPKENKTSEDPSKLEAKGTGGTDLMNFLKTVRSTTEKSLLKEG

The first assay concerns the target T1, IDO1 (Homo sapiens, UniProt P14902).
T1 construct: HeLa cells were treated with a test compound in the presence of IFNγ, which induces IDO1 expression; host or cells: H1-HeLa cells, IDO1 induced with IFNγ
The assay is described as follows: Cell-based (HeLa) assay for measurement of IDO1 inhibition (kynurenine levels in supernatant after IFNγ induction). The settings on record: HeLa cells, IFNγ-induced IDO1, kynurenine in supernatant after 48 hour incubation; geometric mean of a minimum of four determinations. Put shortly: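 IDO1 activity is read as kynurenine released into the medium, detected with Ehrlich's reagent (p-dimethylaminobenzaldehyde) at 480 nm after TCA treatment. HeLa cells were exposed 48 h to compounds in 0.5% DMSO alongside IFNγ induction. Values normalized to no-IFNγ and IFNγ controls; four-parameter EC50 given as geometric mean of ≥4 determinations.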
`CCN(CC)CCNc1nc2c(F)c(F)cc(/C(=N/O)Nc3ccc(F)c(Cl)c3)c2[nH]1` [Example 42, N-(3-Chloro-4-fluorophenyl)-2-((2-(diethylamino)ethyl)amino)-4,5-difluoro-N′-hydroxy-1H-benzo[d]imidazole-7-carboximidamide] had a pEC50 of 6.61.

The compound `O/N=C(\Nc1ccc(F)c(Cl)c1)c1ccnc2nc(-c3cccs3)[nH]c12` [Example 146, N-(3-Chloro-4-fluorophenyl)-N′-hydroxy-2-(thiophen-2-yl)-1H-imidazo[4,5-b]pyridine-7-carboximidamide] showed a pEC50 of 5.38.

`Nc1nc2c(F)c(F)cc(/C(=N/O)Nc3ccc(F)c(C(F)(F)F)c3)c2[nH]1` [Example 17, 2-Amino-4,5-difluoro-N-(4-fluoro-3-(trifluoromethyl)phenyl)-N′-hydroxy-1H-benzo[d]imidazole-7-carboximidamide] showed a pEC50 of 5.96.

Take `O/N=C(\Nc1cccc2ccccc12)c1ccnc2nc[nH]c12` [Example 104, N′-hydroxy-N-(naphthalen-1-yl)-1H-imidazo[4,5-b]pyridine-7-carboximidamide]: the negative logarithm of the EC50 (pEC50) is 5.71.

For `O/N=C(\Nc1ccc(F)c(Cl)c1)c1ccnc2nc(CCN3CCC(Cc4ccccc4)CC3)[nH]c12` [Example 275, 2-(2-(4-benzylpiperidin-1-yl)ethyl)-N-(3-chloro-4-fluorophenyl),N′-hydroxy-1H-imidazo[4,5-b]pyridine-7-carboximidamide], the pEC50 was 6.17. This pEC50 is 0.46 log units higher than that of the compound before.

For the compound `ON=C(Nc1ccc(F)c(Cl)c1)c1ccnc2nc(NCCN3CCC(F)(F)CC3)[nH]c12` [Example 214, N-(3-chloro-4-fluorophenyl)-2-((2-(4,4-difluoropiperidin-1-yl)ethyl)amino)-N′-hydroxy-1H-imidazo[4,5-b]pyridine-7-carboximidamide], the negative logarithm of the EC50 (pEC50) is 5.72.

With `O/N=C(\Nc1cccc(C(F)F)c1)c1ccnc2nc[nH]c12` [Example 98, N-(3-(difluoromethyl)phenyl)-N′-hydroxy-1H-imidazo[4,5-b]pyridine-7-carboximidamide], the pEC50 is 6.26. This pEC50 is 0.54 log units higher than that of the compound before.

`CCNCc1nc2c(F)c(F)cc(/C(=N/O)Nc3cccc(Cl)c3)c2[nH]1` [Example 28, N-(3-Chlorophenyl)-2-((ethylamino)methyl)-4,5-difluoro-N′-hydroxy-1H-benzo[d]imidazole-7-carboximidamide] showed a pEC50 of 6.10.

For `Cc1c(F)cc(/C(=N/O)Nc2ccc(F)c(Cl)c2)c2[nH]cnc12` [Example 9, N-(3-Chloro-4-fluorophenyl)-6-fluoro-N′-hydroxy-7-methyl-3H-benzimidazole-4-carboximidamide], the pEC50 was 6.20.

Still in this assay, the particulars now being: HeLa cells, IFNγ-induced IDO1, kynurenine in supernatant, 48 hour incubation; geometric mean of a minimum of four determinations.
Take `O/N=C(\Nc1ccc(F)c(Cl)c1)c1cc(F)c(F)c2nc(NC3CCNC3)[nH]c12` (stereo not shown) [Example 464, N-(3-chloro-4-fluorophenyl)-4,5-difluoro-N′-hydroxy-2-(pyrrolidin-3-ylamino)-1H-benzo[d]imidazole-7-carboximidamide]: the pEC50 is 5.63.

Take `O/N=C(\Nc1ccc(F)c(Cl)c1)c1ccnc2nc(NCCNC3CC3)[nH]c12` [Example 402, N-(3-chloro-4-fluorophenyl)-2-((2-(cyclopropylamino)ethyl)amino)-N′-hydroxy-1H-imidazo[4,5-b]pyridine-7-carboximidamide]: the pEC50 is 6.25.

For the compound `NCCNc1nc2c(F)c(F)cc(/C(=N/O)Nc3ccc(F)c(Cl)c3)c2[nH]1` [Example 333, 2-((2-aminoethyl)amino)-N-(3-chloro-4-fluorophenyl)-4,5-difluoro-N′-hydroxy-1H-benzo[d]imidazole-7-carboximidamide], the pEC50 is 5.86.

On to `CS(=O)(=O)NCCNc1nc2c(F)c(F)cc(/C(=N/O)Nc3ccc(F)c(Cl)c3)c2[nH]1` [Example 335, N-(3-chloro-4-fluorophenyl)-4,5-difluoro-N′-hydroxy-2-((2-(methylsulfonamido)ethyl)amino)-1H-benzo[d]imidazole-7-carboximidamide], for which the negative logarithm of the EC50 (pEC50) is below 5.00.
